According to patent US10004701B2, “Methods and compositions for treating infection” (UNIVERSITY OF ROCHESTER, priority 2012, dated 2018):
Counter-ions that a name gives are not always drawn. Like-named read-outs stand apart in the source and are kept apart here.

Key:
Assay in all cases: AK assay 384-well format, Prestwick library screening
[1] = system: E. faecium; type: cell-based, Enterococcus faecium; conditions: 50 μM final drug concentration; for fold induction at 50 µM: Enterococcus faecium, 3 h
[2] = system: S. aureus strain USA300-0114; type: cell-based, Staphylococcus aureus; conditions: 50 μM final drug concentration; for fold induction at 50 µM: Staphylococcus aureus, USA300, 3 h
[3] = system: K. pneumoniae; type: cell-based, Klebsiella pneumoniae; conditions: 50 μM final drug concentration; for fold induction at 50 µM: Klebsiella pneumoniae, 3 h
[4] = system: A. baumannii strain 98-37-09; type: cell-based, Acinetobacter baumannii; conditions: 50 μM final drug concentration; for fold induction at 50 µM: Acinetobacter baumannii, 983709, 3 h
[5] = system: P. aeruginosa; type: cell-based, Pseudomonas aeruginosa; conditions: 50 μM final drug concentration; for fold induction at 50 µM: Pseudomonas aeruginosa, 3 h
[6] = system: E. cloacae; type: cell-based, Enterobacter cloacae; conditions: 50 μM final drug concentration; for fold induction at 50 µM: Enterobacter cloacae, 3 h
[7] = system: E. coli; type: cell-based, Escherichia coli; conditions: 50 μM final drug concentration; for fold induction at 50 µM: Escherichia coli, 3 h
[8] = planktonic, […], read-out: AK-based Prestwick Library Screening Results, E. faecium (fold increase in extracellular AK activity)
[9] = planktonic, […], read-out: AK-based Prestwick Library Screening Results, S. aureus (fold increase in extracellular AK activity)
[10] = planktonic, […], read-out: AK-based Prestwick Library Screening Results, K. pneumoniae (fold increase in extracellular AK activity)
[11] = planktonic, […], read-out: AK-based Prestwick Library Screening Results, A. baumannii (fold increase in extracellular AK activity)
[12] = planktonic, […], read-out: AK-based Prestwick Library Screening Results, P. aeruginosa (fold increase in extracellular AK activity)
[13] = planktonic, […], read-out: AK-based Prestwick Library Screening Results, E. cloacae (fold increase in extracellular AK activity)
[14] = planktonic, […], read-out: AK-based Prestwick Library Screening Results, E. coli (fold increase in extracellular AK activity)
[15] = 384-well format, cutoff for positive-scoring molecules 3-fold increase, read-out: AK-based Prestwick Library Screening Results, E. faecium (increase in extracellular AK activity)
[16] = 384-well format, cutoff for positive-scoring molecules 3-fold increase, read-out: AK-based Prestwick Library Screening Results, S. aureus (increase in extracellular AK activity)
[17] = 384-well format, cutoff for positive-scoring molecules 3-fold increase, read-out: AK-based Prestwick Library Screening Results, K. pneumoniae (increase in extracellular AK activity)
[18] = 384-well format, cutoff for positive-scoring molecules 3-fold increase, read-out: AK-based Prestwick Library Screening Results, A. baumannii (increase in extracellular AK activity)
[19] = 384-well format, cutoff for positive-scoring molecules 3-fold increase, read-out: AK-based Prestwick Library Screening Results, P. aeruginosa (increase in extracellular AK activity)
[20] = 384-well format, cutoff for positive-scoring molecules 3-fold increase, read-out: AK-based Prestwick Library Screening Results, E. cloacae (increase in extracellular AK activity)
[21] = 384-well format, cutoff for positive-scoring molecules 3-fold increase, read-out: AK-based Prestwick Library Screening Results, E. coli (increase in extracellular AK activity)

Compound `Cc1[nH]ccc2c1[nH]c1cc(=O)ccc12` [Harmol hydrochloride monohydrate] has a fold induction at 50 µM [1, 8] of 1, a fold induction at 50 µM [2, 9] of 0.9 and a fold induction at 50 µM [3, 10] of 0.9. For the same compound, the fold induction at 50 µM [4, 11] was 1.1, the fold induction at 50 µM [5, 12] was 1.1 and the fold induction at 50 µM [6, 13] was 1.6. It also gave a fold induction at 50 µM [7, 14] of 1.4.
`C[C@]1(OC(=O)/C=C/c2ccccc2)C[C@@H](O)[C@]2(O)C=CO[C@@H](O[C@@H]3O[C@H](CO)[C@@H](O)[C@H](O)[C@H]3O)[C@@H]21` [Harpagoside] showed a fold induction at 50 µM ([1]; planktonic E. faecium, positive cutoff 3-fold increase, read-out: AK-based Prestwick library screening result, E. faecium (fold increase in extracellular AK activity)) of 0.9, a fold induction at 50 µM ([2]; planktonic S. aureus, positive cutoff 3-fold increase, read-out: AK-based Prestwick library screening result, S. aureus (fold increase in extracellular AK activity)) of 0.8 and a fold induction at 50 µM ([3]; planktonic K. pneumoniae, positive cutoff 3-fold increase, read-out: AK-based Prestwick library screening result, K. pneumoniae (fold increase in extracellular AK activity)) of 0.7. It also gave a fold induction at 50 µM ([4]; planktonic A. baumannii, positive cutoff 3-fold increase, read-out: AK-based Prestwick library screening result, A. baumannii (fold increase in extracellular AK activity)) of 0.9, a fold induction at 50 µM ([5]; planktonic P. aeruginosa, positive cutoff 3-fold increase, read-out: AK-based Prestwick library screening result, P. aeruginosa (fold increase in extracellular AK activity)) of 0.8 and a fold induction at 50 µM ([6]; planktonic E. cloacae, positive cutoff 3-fold increase, read-out: AK-based Prestwick library screening result, E. cloacae (fold increase in extracellular AK activity)) of 0.9. The fold induction at 50 µM ([7]; planktonic E. coli, positive cutoff 3-fold increase, read-out: AK-based Prestwick library screening result, E. coli (fold increase in extracellular AK activity)) was 0.8.
`CO[C@H](C)[C@](O)(C(=O)OCC1=CCN2CC[C@H](O)[C@@H]12)C(C)C` [Heliotrine] gave a fold induction at 50 µM [1, 8] of 1, a fold induction at 50 µM [2, 9] of 1.4 and a fold induction at 50 µM [3, 10] of 1. It also gave a fold induction at 50 µM [4, 11] of 1, a fold induction at 50 µM [5, 12] of 1 and a fold induction at 50 µM [6, 13] of 1.7. The fold induction at 50 µM [7, 14] was 1.2.
With `C[C@H]1O[C@@H](O[C@H]2CC[C@]3(C=O)[C@H]4CC[C@]5(C)[C@@H](C6=CC(=O)OC6)CC[C@]5(O)[C@@H]4CC[C@]3(O)C2)C[C@H](O)[C@@H]1O` [Helveticoside] the “AK-based Prestwick Library Screening Results, E. faecium (fold increase in extracellular AK activity)” value ([1]; planktonic, […]) was 0.9, the “AK-based Prestwick Library Screening Results, S. aureus (fold increase in extracellular AK activity)” value ([2]; planktonic, […]) was 0.4 and the “AK-based Prestwick Library Screening Results, K. pneumoniae (fold increase in extracellular AK activity)” value ([3]; planktonic, […]) was 0.5. For the same compound, the “AK-based Prestwick Library Screening Results, A. baumannii (fold increase in extracellular AK activity)” value ([4]; planktonic, […]) was 0.4, the “AK-based Prestwick Library Screening Results, P. aeruginosa (fold increase in extracellular AK activity)” value ([5]; planktonic, […]) was 0.4 and the “AK-based Prestwick Library Screening Results, E. cloacae (fold increase in extracellular AK activity)” value ([6]; planktonic, […]) was 0.4. For the same compound, the “AK-based Prestwick Library Screening Results, E. coli (fold increase in extracellular AK activity)” value ([7]; planktonic, […]) was 0.5.
In the case of `C[N+]1(C)CCOC(O)(c2ccc(-c3ccc(C4(O)C[N+](C)(C)CCO4)cc3)cc2)C1.[Br-].[Br-]` (centres unmarked) [Hemicholinium bromide], the “AK-based Prestwick Library Screening Results, E. faecium (fold increase in extracellular AK activity)” value ([1]; planktonic, […]) is reported as 0.9, the “AK-based Prestwick Library Screening Results, S. aureus (fold increase in extracellular AK activity)” value ([2]; planktonic, […]) is reported as 1.0 and the “AK-based Prestwick Library Screening Results, K. pneumoniae (fold increase in extracellular AK activity)” value ([3]; planktonic, […]) is reported as 1.0. For the same compound, the “AK-based Prestwick Library Screening Results, A. baumannii (fold increase in extracellular AK activity)” value ([4]; planktonic, […]) was 1.2, the “AK-based Prestwick Library Screening Results, P. aeruginosa (fold increase in extracellular AK activity)” value ([5]; planktonic, […]) was 0.9 and the “AK-based Prestwick Library Screening Results, E. cloacae (fold increase in extracellular AK activity)” value ([6]; planktonic, […]) was 2.0. The “AK-based Prestwick Library Screening Results, E. coli (fold increase in extracellular AK activity)” value ([7]; planktonic, […]) was 1.1.
In the case of `CC(N)CCCC(C)(C)O` (centres unmarked) [Heptaminol hydrochloride], the fold induction at 50 µM [1, 15] is reported as 0.9, the fold induction at 50 µM [2, 16] is reported as 0.7 and the fold induction at 50 µM [3, 17] is reported as 0.5. It also gave a fold induction at 50 µM [4, 18] of 0.6, a fold induction at 50 µM [5, 19] of 0.5 and a fold induction at 50 µM [6, 20] of 0.7. For the same compound, the fold induction at 50 µM [7, 21] was 0.8.
`COc1ccc([C@@H]2CC(=O)c3c(O)cc(O)cc3O2)cc1O` [Hesperetin] was tested, and the fold induction at 50 µM [1, 15] was 0.9, the fold induction at 50 µM [2, 16] was 0.5 and the fold induction at 50 µM [3, 17] was 0.9. It also gave a fold induction at 50 µM [4, 18] of 1.1, a fold induction at 50 µM [5, 19] of 0.9 and a fold induction at 50 µM [6, 20] of 1.3. For the same compound, the fold induction at 50 µM [7, 21] was 1.1.
For `COc1ccc([C@@H]2CC(=O)c3c(O)cc(O[C@@H]4O[C@H](CO[C@@H]5O[C@@H](C)[C@H](O)[C@@H](O)[C@H]5O)[C@@H](O)[C@H](O)[C@H]4O)cc3O2)cc1O` [Hesperidin], the “AK-based Prestwick Library Screening Results, E. faecium (fold increase in extracellular AK activity)” value ([1]; planktonic, […]) was 1.1, the “AK-based Prestwick Library Screening Results, S. aureus (fold increase in extracellular AK activity)” value ([2]; planktonic, […]) was 1.3 and the “AK-based Prestwick Library Screening Results, K. pneumoniae (fold increase in extracellular AK activity)” value ([3]; planktonic, […]) was 1.0. The “AK-based Prestwick Library Screening Results, A. baumannii (fold increase in extracellular AK activity)” value ([4]; planktonic, […]) was 1.2, the “AK-based Prestwick Library Screening Results, P. aeruginosa (fold increase in extracellular AK activity)” value ([5]; planktonic, […]) was 1.0 and the “AK-based Prestwick Library Screening Results, E. cloacae (fold increase in extracellular AK activity)” value ([6]; planktonic, […]) was 1.4. For the same compound, the “AK-based Prestwick Library Screening Results, E. coli (fold increase in extracellular AK activity)” value ([7]; planktonic, […]) was 1.1.
For `C[N+](C)(C)CCCCCC[N+](C)(C)C.O.O.[Br-].[Br-]` [Hexamethonium dibromide dihydrate], the “AK-based Prestwick Library Screening Results, E. faecium (increase in extracellular AK activity)” value ([1]; 384-well format, […]) was 0.9, the “AK-based Prestwick Library Screening Results, S. aureus (increase in extracellular AK activity)” value ([2]; 384-well format, […]) was 0.7 and the “AK-based Prestwick Library Screening Results, K. pneumoniae (increase in extracellular AK activity)” value ([3]; 384-well format, […]) was 0.7. For the same compound, the “AK-based Prestwick Library Screening Results, A. baumannii (increase in extracellular AK activity)” value ([4]; 384-well format, […]) was 0.9, the “AK-based Prestwick Library Screening Results, P. aeruginosa (increase in extracellular AK activity)” value ([5]; 384-well format, […]) was 0.8 and the “AK-based Prestwick Library Screening Results, E. cloacae (increase in extracellular AK activity)” value ([6]; 384-well format, […]) was 1.2. The “AK-based Prestwick Library Screening Results, E. coli (increase in extracellular AK activity)” value ([7]; 384-well format, […]) was 0.9.
With `CC[C@H](c1ccc(O)cc1)[C@@H](CC)c1ccc(O)cc1` [Hexestrol] the fold induction at 50 µM ([1]; cutoff for positive-scoring molecules 3-fold increase, read-out: AK-based Prestwick Library Screening Results, E. faecium (fold increase in extracellular AK activity)) was 1.2, the fold induction at 50 µM ([2]; cutoff for positive-scoring molecules 3-fold increase, read-out: AK-based Prestwick Library Screening Results, S. aureus (fold increase in extracellular AK activity)) was 0.7 and the fold induction at 50 µM ([3]; cutoff for positive-scoring molecules 3-fold increase, read-out: AK-based Prestwick Library Screening Results, K. pneumoniae (fold increase in extracellular AK activity)) was 0.7. For the same compound, the fold induction at 50 µM ([4]; cutoff for positive-scoring molecules 3-fold increase, read-out: AK-based Prestwick Library Screening Results, A. baumannii (fold increase in extracellular AK activity)) was 3, the fold induction at 50 µM ([5]; cutoff for positive-scoring molecules 3-fold increase, read-out: AK-based Prestwick Library Screening Results, P. aeruginosa (fold increase in extracellular AK activity)) was 1.1 and the fold induction at 50 µM ([6]; cutoff for positive-scoring molecules 3-fold increase, read-out: AK-based Prestwick Library Screening Results, E. cloacae (fold increase in extracellular AK activity)) was 1.6. It also gave a fold induction at 50 µM ([7]; cutoff for positive-scoring molecules 3-fold increase, read-out: AK-based Prestwick Library Screening Results, E. coli (fold increase in extracellular AK activity)) of 1.4.
`CCCCC(CC)CN1CN(CC(CC)CCCC)CC(C)(N)C1` (centres unmarked) [Hexetidine] gave a fold induction at 50 µM ([1]; planktonic, cutoff for positive 3-fold increase, read-out: AK-based Prestwick Library Screening Results, E. faecium (fold increase in extracellular AK activity)) of 1.1, a fold induction at 50 µM ([2]; planktonic, cutoff for positive 3-fold increase, read-out: AK-based Prestwick Library Screening Results, S. aureus (fold increase in extracellular AK activity)) of 1.2 and a fold induction at 50 µM ([3]; planktonic, cutoff for positive 3-fold increase, read-out: AK-based Prestwick Library Screening Results, K. pneumoniae (fold increase in extracellular AK activity)) of 1.4. The fold induction at 50 µM ([4]; planktonic, cutoff for positive 3-fold increase, read-out: AK-based Prestwick Library Screening Results, A. baumannii (fold increase in extracellular AK activity)) was 3, the fold induction at 50 µM ([5]; planktonic, cutoff for positive 3-fold increase, read-out: AK-based Prestwick Library Screening Results, P. aeruginosa (fold increase in extracellular AK activity)) was 1.1 and the fold induction at 50 µM ([6]; planktonic, cutoff for positive 3-fold increase, read-out: AK-based Prestwick Library Screening Results, E. cloacae (fold increase in extracellular AK activity)) was 1.6. The fold induction at 50 µM ([7]; planktonic, cutoff for positive 3-fold increase, read-out: AK-based Prestwick Library Screening Results, E. coli (fold increase in extracellular AK activity)) was 1.5.
